In patent US7713971B2, “1,2,4-triazine derivatives, preparation and use thereof in human therapy” (Pierre Fabre Medicament, priority 2005, dated 2010):
Read-outs that look alike come from different tables or passages of the source.

Experiments:
[1] = system: insulin-resistant male rat (Ico: ZUCKER-fa/fa); experiment: Normalization of metabolic parameters (cholesterol, plasma triglycerides) in insulin-resistant rat; type: in vivo; conditions: oral route, once per day for four days, Zucker fa/fa rat unfed 16-18 hours; for change in vivo at 2.5 mg/kg / change in vivo at 10 mg/kg: 96 h
Protocol: Normalization of metabolic parameters (cholesterol, plasma triglycerides) in an insulin-resistant male rat (Ico: ZUCKER-fa/fa), unfed for 16-18 hours, after treatment by oral route, once per day for four days, with the compounds to be evaluated or their administration vehicle.
These metabolic parameters are measured by spectrophotometry at the beginning and the end of each animal's treatment.

human PPARγ = biological target: T1, human PPARγ (Homo sapiens, UniProt P37231); experiment: Reporter gene transactivation, hPPAR-GAL4 gamma; type: cell-based; conditions: transfected Cos-7 cells, Gal-4 luciferase reporter, 24 hours treatment
T1 construct: expressed in transfected cells; host or cells: Cos-7 cells (ATCC, CRL-1651)
T1 sequence (P37231 238-503 limits assumed): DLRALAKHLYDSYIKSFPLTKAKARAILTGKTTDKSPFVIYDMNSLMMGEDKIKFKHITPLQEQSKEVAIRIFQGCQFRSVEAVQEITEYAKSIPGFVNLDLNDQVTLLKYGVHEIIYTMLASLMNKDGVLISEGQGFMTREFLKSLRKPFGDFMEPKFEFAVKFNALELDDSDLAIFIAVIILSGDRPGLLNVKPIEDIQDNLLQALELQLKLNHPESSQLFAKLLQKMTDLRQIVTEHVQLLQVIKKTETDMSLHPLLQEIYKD

human PPARα = biological target: T2, human PPARα (Homo sapiens, UniProt Q07869); experiment: Reporter gene transactivation, hPPAR-GAL4 alpha; type: cell-based; conditions: transfected Cos-7 cells, Gal-4 luciferase reporter, 24 hours treatment
T2 construct: expressed in transfected cells; host or cells: Cos-7 cells (ATCC, CRL-1651)
T2 sequence (Q07869 239-466 limits assumed): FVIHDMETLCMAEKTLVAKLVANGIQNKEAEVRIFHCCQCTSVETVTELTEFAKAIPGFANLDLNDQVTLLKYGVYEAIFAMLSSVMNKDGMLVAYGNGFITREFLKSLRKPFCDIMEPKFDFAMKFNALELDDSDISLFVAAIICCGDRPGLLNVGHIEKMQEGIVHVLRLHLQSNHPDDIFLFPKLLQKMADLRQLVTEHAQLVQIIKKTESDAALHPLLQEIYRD

[2] = at 2.5 mg/kg, read-out: Plasma cholesterol
[3] = at 2.5 mg/kg, read-out: Plasma triglycerides
[4] = at 10 mg/kg, read-out: Plasma cholesterol
[5] = at 10 mg/kg, read-out: Plasma triglycerides

| SMILES | EC50 (human PPARγ) [µM] | EC50 (human PPARα) [µM] | further results |
| --- | --- | --- | --- |
| CCCCCCCn1nc(OCCCCCc2cccc(OC(C)(C)C(=O)OCC)c2)c(=O)n(CCCC)c1=O [Example 15, Ethyl 2-{3-[5-(4-butyl-2-heptyl-3,5-dioxo-2,3,4,5-tetrahydro-[1,2,4]triazin-6-yloxy)-pentyl]-phenoxy}-2-methyl-propionate] | 0.1 to 0.3 | 0.001 to 0.003 | change in vivo at 2.5 mg/kg [1, 2]: -4%; change in vivo at 2.5 mg/kg [1, 3]: -22%; change in vivo at 10 mg/kg [1, 4]: -8%; change in vivo at 10 mg/kg [1, 5]: -63% |
| CCCCCCCn1nc(NCCc2ccc(SC(C)(C)C(=O)O)cc2)c(=O)n(CCCC)c1=O [Example 121, 2-{4-[2-(4-Butyl-2-heptyl-3,5-dioxo-2,3,4,5-tetrahydro-[1,2,4]triazin-6-ylamino)-ethyl]-phenylsulfanyl}-2-methyl-propionic Acid] | 1 to 3 | 0.03 to 0.1 | change in vivo at 2.5 mg/kg [1, 2]: -7%; change in vivo at 2.5 mg/kg [1, 3]: -24% |
| CCCCCCCn1nc(NCCCCc2cccc(OC(C)(C)C(=O)OCC)c2)c(=O)n(C)c1=O [Example 75, Ethyl 2-{3-[4-(2-heptyl-4-methyl-3,5-dioxo-2,3,4,5-tetrahydro-[1,2,4]triazin-6-ylamino)-butyl]-phenoxy}-2-methyl-propionate] | 3 to 10 | 3 to 10 | change in vivo at 2.5 mg/kg [1, 2]: -19%; change in vivo at 10 mg/kg [1, 4]: -13%; Plasma triglycerides ([1]; at 10 mg/kg): active at 10 |
| CCCCn1c(=O)c(OCCCCCc2cccc(OC(C)(C)C(=O)OCC)c2)nn(C)c1=O [Example 11, Ethyl 2-{3-[5-(4-butyl-2-methyl-3,5-dioxo-2,3,4,5-tetrahydro-[1,2,4]triazin-6-yloxy)-pentyl]-phenoxy}-2-methyl-propionate] | 1 to 3 | 0.3 to 1 | change in vivo at 2.5 mg/kg [1, 2]: -25%; change in vivo at 10 mg/kg [1, 4]: -25%; change in vivo at 10 mg/kg [1, 5]: -37%; Plasma triglycerides ([1]; at 2.5 mg/kg): inactive at 2.5 |
| CCOC(=O)C(C)(C)Oc1ccc(CCNc2nn(CCCC3CCCCC3)c(=O)n(CCCC(F)(F)F)c2=O)cc1 [Example 105, Ethyl 2-(4-{2-[2-(3-cyclohexyl-propyl)-3,5-dioxo-4-(4,4,4-trifluoro-butyl)-2,3,4,5-tetrahydro-[1,2,4]triazin-6-ylamino]-ethyl}-phenoxy)-2-methyl-propionate] | ~10 | 1 to 3 | – |
| CCCCCCCn1c(=O)c(NCCCCOc2ccc(OC(C)(C)C(=O)OCC)cc2)nn(C)c1=O [Example 50, Ethyl 2-{4-[4-(4-heptyl-2-methyl-3,5-dioxo-2,3,4,5-tetrahydro-[1,2,4]triazin-6-ylamino)-butoxy]-phenoxy}-2-methyl-propionate] | ~10 | > 10 | – |
| CCCCCCCn1nc(OCCCCCc2cccc(OC(C)(C)C(=O)OCC)c2)c(=O)n(C)c1=O [Example 10, Ethyl 2-{3-[5-(2-heptyl-4-methyl-3,5-dioxo-2,3,4,5-tetrahydro-[1,2,4]triazin-6-yloxy)-pentyl]-phenoxy}-2-methyl-propionate] | ~1 | 0.3 to 1 | – |
| CCCCCCCn1nc(NCCCCc2cccc(OC(C)(C)C(=O)OCC)c2)c(=O)n(CCCCCCC)c1=O [Example 88, Ethyl 2-{3-[4-(2,4-diheptyl-3,5-dioxo-2,3,4,5-tetrahydro-[1,2,4]triazin-6-ylamino)-butyl]-phenoxy}-2-methyl-propionate] | ~10 | ~0.3 | – |
| CCCCCCCn1c(=O)c(OCCCCCc2cccc(OC(C)(C)C(=O)OCC)c2)nn(CCCC(F)(F)F)c1=O [Example 18, Ethyl 2-(3-{5-[4-heptyl-3,5-dioxo-2-(4,4,4-trifluoro-butyl)-2,3,4,5-tetrahydro-[1,2,4]triazin-6-yloxy]-pentyl}-phenoxy)-2-methyl-propionate] | ~1 | 0.03 to 0.1 | – |
| CCOC(=O)/C=C/Cn1nc(NCCc2ccc(OC(C)(C)C(=O)OCC)cc2)c(=O)n(CCCC(F)(F)F)c1=O [Example 104, Ethyl 4-[6-{2-[4-(1-ethoxycarbonyl-1-methyl-ethoxy)-phenyl]-ethylamino}-3,5-dioxo-4-(4,4,4-trifluoro-butyl)-4,5-dihydro-3H-[1,2,4]triazin-2-yl]-but-2-enoate] | > 10 | 1 to 3 | – |
| CCCCCCCn1nc(OCCCCOc2cccc(OC(C)(C)C(=O)OCC)c2)c(=O)n(C)c1=O [Example 36, Ethyl 2-{3-[4-(2-heptyl-4-methyl-3,5-dioxo-2,3,4,5-tetrahydro-[1,2,4]triazin-6-yloxy)-butoxy]-phenoxy}-2-methyl-propionate] | 3 to 10 | 0.3 to 1 | – |
| CCCCCCCn1c(=O)c(NCCCOc2ccc(SC(C)(C)C(=O)OCC)cc2)nn(C)c1=O [Example 49, Ethyl 2-{4-[3-(4-heptyl-2-methyl-3,5-dioxo-2,3,4,5-tetrahydro-[1,2,4]triazin-6-ylamino)-propoxy]-phenylsulfanyl}-2-methyl-propionate] | > 10 | > 10 | – |
| CCCCCCCn1nc(OCCCOc2cccc(SC(C)(C)C(=O)OCC)c2)c(=O)n(C)c1=O [Example 34, Ethyl 2-{3-[3-(2-heptyl-4-methyl-3,5-dioxo-2,3,4,5-tetrahydro-[1,2,4]triazin-6-yloxy)-propoxy]-phenylsulfanyl}-2-methyl-propionate] | > 10 | > 10 | – |
| CCCCCCCn1nc(NCCCCc2cccc(OC(C)(C)C(=O)OCC)c2)c(=O)n(Cc2ccccc2)c1=O [Example 91, Ethyl 2-{3-[4-(4-benzyl-2-heptyl-3,5-dioxo-2,3,4,5-tetrahydro-[1,2,4]triazin-6-ylamino)-butyl]-phenoxy}-2-methyl-propionate] | 3 to 10 | 0.3 to 1 | – |
| CCCCCCCn1c(=O)c(NCCCCc2cccc(SC(C)(C)C(=O)OCC)c2)nn(Cc2ccccc2)c1=O [Example 99, Ethyl 2-{3-[4-(2-benzyl-4-heptyl-3,5-dioxo-2,3,4,5-tetrahydro-[1,2,4]triazin-6-ylamino)-butyl]-phenylsulfanyl}-2-methyl-propionate] | 3 to 10 | > 10 | – |
| CCCCCCCn1nc(NCCCc2cccc(OC(C)(C)C(=O)OCC)c2)c(=O)n(CCCCCCC)c1=O [Example 69, Ethyl 2-{3-[3-(2,4-diheptyl-3,5-dioxo-2,3,4,5-tetrahydro-[1,2,4]triazin-6-ylamino)-propyl]-phenoxy}-2-methyl-propionate] | ~10 | 1 to 3 | – |
| CCCCCCCn1nc(N(CCCOc2cccc(OC(C)(C)C(=O)OCC)c2)CCCC(F)(F)F)c(=O)n(C)c1=O [Example 51, Ethyl 2-(3-{3-[(2-heptyl-4-methyl-3,5-dioxo-2,3,4,5-tetrahydro-[1,2,4]triazin-6-yl)-(4,4,4-trifluoro-butyl)-amino]-propoxy}-phenoxy)-2-methyl-propionate] | > 10 | 3 to 10 | – |
| CCCCCCCn1nc(OCCc2cccc(OC(C)(C)C(=O)OCC)c2)c(=O)n(C)c1=O [Example 2, Ethyl 2-{3-[2-(2-heptyl-4-methyl-3,5-dioxo-2,3,4,5-tetrahydro-[1,2,4]triazin-6-yloxy)-ethyl]-phenoxy}-2-methyl-propionate] | ~10 | > 10 | – |
| CCCCCCCn1c(=O)c(NCCCc2cccc(OC(C)(C)C(=O)OCC)c2)nn(Cc2ccccc2)c1=O [Example 70, Ethyl 2-{3-[3-(2-benzyl-4-heptyl-3,5-dioxo-2,3,4,5-tetrahydro-[1,2,4]triazin-6-ylamino)-propyl]-phenoxy}-2-methyl-propionate] | ~10 | ~1 | – |
| CCCCCCCn1c(=O)c(NCCCCc2cccc(OC(C)(C)C(=O)OCC)c2)nn(CCC#N)c1=O [Example 86, Ethyl 2-(3-{4-[2-(2-cyano-ethyl)-4-heptyl-3,5-dioxo-2,3,4,5-tetrahydro-[1,2,4]triazin-6-ylamino]-butyl}-phenoxy)-2-methyl-propionate] | ~1 | > 10 | – |
| CCCCCCCn1nc(OCCCCOc2cccc(SC(C)(C)C(=O)OCC)c2)c(=O)n(C)c1=O [Example 37, Ethyl 2-{3-[4-(2-heptyl-4-methyl-3,5-dioxo-2,3,4,5-tetrahydro-[1,2,4]triazin-6-yloxy)-butoxy]-phenylsulfanyl}-2-methyl-propionate] | ~10 | > 10 | – |
| CCCCCCCn1nc(NCCCc2ccc(SC(C)(C)C(=O)OCC)cc2)c(=O)n(C)c1=O [Example 124, Ethyl 2-{4-[3-(2-heptyl-4-methyl-3,5-dioxo-2,3,4,5-tetrahydro-[1,2,4]triazin-6-ylamino)propyl]-phenylsulfanyl}-2-methyl-propionate] | > 10 | 0.3 to 1 | – |
